Reference: US6245738A, “Cytokine restraining agents” (Trega Biosciences, Inc., priority 1994, dated 2001)
Square brackets hold non-standard residues; d marks the D form. Peptide text beside a SMILES is read from it.

How the values were obtained:
TNF-α [1] = experiment: Reduction of LPS-induced TNF-α levels in mice (ip peptide), plasma ELISA; assay type: in vivo, Balb/c female mice; details: 1 min before 5 mg/kg LPS ip, vs control mice
Description: Balb/c female mice weighing approximately 20 g were placed into two groups, a control group and a treated group. Five mg/kg of LPS in 0.9% saline was administered by intraperitoneal (ip) injection into the control mice. Mice in the treated group were first injected ip with 30 μg EX-2 or 150 μg EX-3 in saline, then, one minute after EX-2 or EX-3 was administered, the mice received LPS as described for the control group.
Blood samples were collected from the orbital sinus of treated and control mice at various times up to four hours after LPS was administered. The plasma was separated by centrifugation at 3000×g for 5 min, then diluted with four volumes of 1× phosphate buffer saline (pH 7.4) containing 1% bovine serum albumin. A 100 μl sample of serum was assayed by ELISA for TNF-α (Genzyme; Cambridge Mass.).
The mean (+/-SEM) TNF-α level in six mice from each group was determined and the percent reduction in TNF levels was calculated.

interleukin-6 (IL-6) = experiment: Reduction of LPS-induced interleukin-6 levels in mice, IL-6-specific ELISA; assay type: in vivo, Balb/c mice; details: 300 μg/mouse (Table I), LPS treated mice; vs control mice
Description: Balb/c mice were grouped and treated as described in Example III, above. Blood samples were obtained from the orbital sinus at various times up to six hours and serum was collected and diluted as described above. A 100 μl aliquot was assayed for IL-6 levels using an IL-6-specific ELISA by a modification of the method of Starnes et al., J. Immunol. 145:4185-4194 (1990), which is incorporated herein by reference.
The mean (+/-SEM) IL-6 level in six mice from each group was determined and the percent reduction in IL-6 was calculated.

LPS-induced lethality [2] = experiment: Lipopolysaccharide-induced lethality (ip peptide); assay type: in vivo, adult female Balb/c mice; details: 11 × 300 μg/mouse ip (3.3 mg total), every 4 hr; 0.6 mg LPS
Description: These experiments were performed based on information reported by Rivier et al., Endocrinology 125:2800-2805 (1989), which is incorporated herein by reference. Adult female Balb/c mice were provided food and water ad libitum. Mice were injected ip every four hours for 40 hr with 30 to 300 μg EX-2 or EX-3 in 0.2 ml saline (treated group) or with 0.2 ml saline, alone (control group) (10 mice per group). Immediately following the first injection, 0.6 mg LPS endotoxin in 0.2 ml saline was administered to each mouse. Following LPS injection, EX-2 or saline was administered to the treated mice or the control mice, respectively, every 4 hr for 36 hr.

[3] = test system: IL-1β-induced hyperalgesia; experiment: Interleukin-1β-induced hyperalgesia, paw pressure test; assay type: in vivo, adult male Sprague-Dawley rats; details: 1 μg ip, 20 min before intraplantar IL-1β; 2 hr after IL-1
Description: These experiments were performed using a modification of the methods described by Poole et al., Br. J. Pharmacol. 106:489-492 (1992); Follenfant et al., Br. J. Pharmacol. 98:41-43 (1989); and Randall and Sellito, Arch. Internatl. Pharmacodyn. 111:409-419 (1957), each of which is incorporated herein by reference. Adult male Sprague-Dawley rats (175-275 g) were tested for hyperalgesia by a paw pressure technique using variable pressure instrumentation (IITC Life Sciences; Woodland Hills, Calif.). Rats were acclimated to the housing environment and were handled for three days prior to beginning a training session. On the day before the hyperalgesia experiments was to begin, each rat was placed into a sock and two variable paw pressure tests were performed 15 min apart. […] Approximately 5-10% of the rats were non-responders and were eliminated from further experiments.
Animals that responded to the paw pressure were pretreated by ip injection of various concentrations of EX-2 in a volume of 1 ml/kg (treated) or saline, alone (control). After 20 min, 100 μl of IL-1β (1U/100 μl) was administered to rats via intraplantar injection. Two hr after IL-1 administration, rats were subjected to two additional paw pressure tests and the increase in mm Hg of pressure that could be applied to the EX-2-treated rats as compared to the control rats was determined.

[4] = test system: LPS-induced PMN infiltration in lungs; experiment: Adult respiratory distress syndrome: PMN count in broncho-alveolar lavage after intratracheal LPS; assay type: in vivo, male Harlan Sprague-Dawley rats; details: 100 μg/kg ip at 0, 2 and 4 hr; lavage at 6 hr after intratracheal LPS 5 mg/kg
Description: These experiments were performed using a modification of the methods described by Ulich et al., Am. J. Pathol. 141:61-68 (1992) and by Wheelden et al., Lab. Animals 26:29-37 (1992), each of which is incorporated herein by reference. Male Harlan Sprague-Dawley rats were anesthetized using a mixture of 70 mg/kg ketamine and 6 mg/kg rompun injected ip. A 2-3 cm incision was made in the neck of each anesthetized rat and its trachea was exposed by blunt dissection of the surrounding soft tissue. The rats were suspended on a near vertical slab and intratracheal injections were performed by inserting into the exposed trachea, at a point 1 cm posterior to the larynx, a 25G×1/2 inch needle attached to a 1 cc syringe.
Each rat received 0.5 ml/kg of saline or 0.5 ml/kg of 10 mg/ml (5 mg/kg) LPS endotoxin via slow intratracheal administration. Immediately following administration of the LPS endotoxin, rats were injected ip with 1 ml/kg of either saline (control) or saline containing various concentrations of EX-2 (treated). The rats were maintained in the elevated position for 1-2 min to facilitate distribution of the LPS and saline into the lung. The incisions were closed and the rats were allowed to recover. […]
The total polymorphonuclear leukocytes (PMN; neutrophils) in the broncho-alveolar lavage fluid were counted in the EX-2-treated rats and compared with the number in the control rats.

[5] = test system: arachidonic acid-induced ear swelling; experiment: Arachidonic acid-induced ear swelling; assay type: in vivo, female Balb/c mice; details: 100 μg/mouse ip, 30 min prior to AA; 60 min after AA application
Description: Experiments were performed using female Balb/c mice weighing 18-23 grams. Saline or 100 μg EX-2 or EX-3 was administered ip, 30 min prior to topical application of arachidonic acid (AA). A 10 μl pipet was used to apply 10 μl AA solution (100 mg/ml ethanol; Calbiochem-Novabiochem; San Diego, Calif.) to the inner and outer surfaces of the right ear of each mouse. Ten μl ethanol, alone, was applied to the inner and outer surface of the left ear of each mouse. Ear thickness was measured with a hand-held spring loaded caliper immediately before and 60 min after AA application. Increase in ear thickness was calculated by subtracting the change observed in the control ear from the change observed in AA-treated ear. The value for each group (saline and control) is the average of the swelling observed in the individual mice in each group. The percent reduction of swelling is based on the swelling observed in the saline control group.

TNF-α [6] = experiment: LPS-induced TNF-α levels, orally administered peptide (gavage); assay type: in vivo, Balb/c female mice; details: 1 min before 0.1 mg LPS ip
Description: The ability of orally administered cytokine restraining agents to reduce LPS-induced TNF-α levels also was examined. Balb/c female mice (20 g) were administered 150 μg or 300 μg EX-2, EX-3, EX-4 or EX-5 in 100 μl saline by gavage. Control mice received 100 μl saline, alone. One minute later, 0.1 mg LPS was administered by ip injection. Samples were collected and TNF-α levels were determined as described in Example III, above.
The mean TNF-α levels in the mice from each group (n=9-20) was determined and the percent reduction in TNF-α levels was calculated.

LPS-induced lethality [7] = experiment: LPS-induced lethality, orally administered peptide (gavage); assay type: in vivo, adult female Balb/c mice; details: 0.6 mg LPS ip
Description: The LPS-induced lethality studies were performed based on information reported by Rivier et al., supra, 1989. Adult female Balb/c mice were provided food and water ad libitum. Mice were administered 150 μg or 300 μg EX-2, EX-3, EX-4 or EX-5 in 100 μl saline by gavage every 4 hr for 40 hr (total doses of 1.65 mg and 3.3 mg, respectively). Control mice received 100 μl saline, alone. Immediately following the first dose of cytokine restraining agent or saline, 0.6 mg LPS in 0.2 ml saline was administered by ip injection.

[8] = 3.3 mg total (300 μg by gavage every 4 hr for 40 hr)

`CCCC[C@H](NC(C)=O)C(=O)N[C@@H](CCC(N)=O)C(=O)N[C@@H](Cc1c[nH]cn1)C(=O)N[C@H](Cc1ccccc1)C(=O)N[C@@H](CCCNC(=N)N)C(=O)N[C@H](Cc1c[nH]c2ccccc12)C(=O)NCC(N)=O` [EX-2, Ac-Nle-Gln-His-(D)Phe-Arg-(D)Trp-Gly-NH2] was tested, and the “Reduction in TNF levels” value (TNF-α [1]; 30 μg/mouse ip) was 50%, the “Reduction in IL-6 levels” value (interleukin-6 (IL-6)) was 60% and the “Inhibition of LPS-induced Lethality (increase in survival)” value (LPS-induced lethality [2]) was 83%. For the same compound, the “Reduction in IL-1-induced Hyperalgesia (increase in tolerated paw pressure)” value [3] was 125%, the “Reduction in LPS-induced PMN Count” value [4] was 58% and the “Reduction in arachidonic acid-induced Ear Swelling” value [5] was 72%.

For `CC(=O)N[C@H](C(=O)N[C@@H](CCC(N)=O)C(=O)N[C@@H](Cc1c[nH]cn1)C(=O)N[C@H](Cc1ccccc1)C(=O)N[C@@H](CCCNC(=N)N)C(=O)N[C@H](Cc1c[nH]c2ccccc12)C(=O)NCC(N)=O)C1CCCCC1` [EX-3, Ac-(cyclohexyl)Gly-Gln-His-(D)Phe-Arg-(D)Trp-Gly-NH2], the “Reduction in TNF levels” value (TNF-α [1]; 150 μg/mouse ip) was 56%, the “Inhibition of LPS-induced Lethality (increase in survival)” value (LPS-induced lethality [2]) was 86% and the “Reduction in arachidonic acid-induced Ear Swelling” value [5] was 62%. The “percent reduction in TNF-α levels, oral” value (TNF-α [6]; 150 μg by gavage) was 49% and the “percent reduction in TNF-α levels, oral” value (TNF-α [6]; 300 μg by gavage) was 40%.

`CC(=O)N[C@@H](Cc1c[nH]cn1)C(=O)N[C@H](Cc1ccccc1)C(=O)N[C@@H](CCCNC(=N)N)C(=O)N[C@H](Cc1c[nH]c2ccccc12)C(=O)NCC(N)=O` [EX-4, Ac-His-(D)Phe-Arg-(D)Trp-Gly-NH2] (Ac-H[dF]R[dW]G-NH2) was tested, and the “increase in survival, oral” value (LPS-induced lethality [7]; [8]) was 63% and the “percent reduction in TNF-α levels, oral” value (TNF-α [6]; 300 μg by gavage) was 44%.

In the case of `CC(=O)N[C@@H](Cc1c[nH]cn1)C(=O)N[C@H](Cc1ccccc1)C(=O)N[C@@H](CCCNC(=N)N)C(=O)N[C@H](Cc1c[nH]c2ccccc12)C(N)=O` [EX-5, Ac-His-(D)Phe-Arg-(D)Trp-NH2], the “increase in survival, oral” value (LPS-induced lethality [7]; 1.65 mg total (150 μg by gavage every 4 hr for 40 hr)) is reported as 68% and the “increase in survival, oral” value (LPS-induced lethality [7]; [8]) is reported as 44%.
